Reference: patent US11311590B2, “Anti-inflammatory botanical extract” (Innophos, Inc., priority 2018, dated 2022)

System: potato 5-Lipoxygenase enzyme
Experiment: Lipoxygenase Inhibitor Screening Assay Kit (Cayman) with potato 5-Lipoxygenase
Format: biochemical
Details: positive control at 100 μM
Experimental: Research grade reagents were used for the rest of the assay preparations. Extracts were dissolved in dimethyl sulfoxide (‘DMSO’) to a final concentration of 50 mg/mL, and then diluted in appropriate buffer for each bioassay to working concentrations.
This kit measures hydroperoxides produced in the lipoxygenation reaction.
The extracts were dissolved in methanol to final working concentrations. 5-LOX enzyme, Chromagen, and Linoleic Acid solutions were prepared immediately before use. Nordihydroguaiaretic acid (‘NDGA’) was used as a positive control. 5-LOX enzyme was added to the test samples and controls and incubated for five minutes at room temperature to allow for enzyme/inhibitor interaction. Linoleic acid substrate was added to the plate to initiate the reaction, and the plate was then shaken at room temperature for 10 minutes. Chromagen was added to visualize the hydroperoxides formed during the reaction and the plate was shaken at room temperature for another five minutes. The absorbance was then read at 492 nm. Percent inhibition of the extract concentration was calculated in comparison to the uninhibited control wells.

Molecule `CC(Cc1ccc(O)c(O)c1)C(C)Cc1ccc(O)c(O)c1` (stereo not shown) [NDGA, Nordihydroguaiaretic acid] has a 5-LOX enzyme inhibition of 100%.
